This is an account of results in US20050260737A1, “Novel lipase gene from Bacillus sphaericus 205y” (priority 2004, published 2005).

One series deals with isolate 205y. The experiment in a line: Growth of isolate 205y in different organic solvents and concentrations. In kind it is cell-based, Bacillus sphaericus 205y. Details: Growth of isolate 205y: key to the marks not given beside the values. The conditions noted are these: for Growth of isolate 205y: growth visually determined. The procedure: The Bacillus sphaericus 205y culture could be obtained from Enzyme and Microbial Technology Research Department of Biochemistry and Microbiology, Faculty of Science and Environmental Studies, University Putra Malaysia. One gram of soil is resuspended in 10 ml basal mineral […] supplemented with selected hydrocarbon (0.1% v/v). The basal media contained (w/v) K2HPO4 0.5%, NH4Cl (1.0%), Na2SO4 (2%), KNO3 (2%), MgSO4.7H2O (0.2%).
Selected hydrocarbons would either be benzene, toluene or mixture of both as their sole carbon and energy source. Pure isolates were prescreened in media spiked with 1% v/v hydrocarbon. Isolates were grouped into groups of good, moderate, acceptable and negative, based on the turbidity of the media (Inoue et al., 1989). Non-inoculated controls were also used to ensure that the turbidity is due to growth.

Series [1] relates to recombinant lipase (Bacillus sphaericus 205y lipase expressed in E. coli). Put plainly: Effect of organic solvents on crude recombinant lipase activity (organic solvent-tolerant test). In kind it is biochemical. The conditions noted are these: for Relative activity (%) at concentration of 25%: 25% (v/v) solvent (1 ml solvent/3 ml crude enzyme), 30 min, 37° C., shaking, relative to non-solvent control. The procedure: The mixture is allowed to stand still for 20-30 seconds until the aqueous phase was sedimented clearly from the solution of isooctane and fatty acids. The reaction mixture contains 0.01 M calcium chloride (20 μl), olive oil emulsion (2.5 ml) and crude enzyme (1 ml). The reaction mixture was continuously agitated by using a horizontal shaker at 200 rpm at 37° C. The reaction was stopped by adding isooctane (5 ml) to dissolve free fatty acids produced by olive oil hydrolysis. Lipase activity was determined by measuring the free fatty acids from the standard curve of free fatty acids. One unit of lipase activity was defined as 1.0 μmol of fatty acid liberated per min per ml.
After induction with IPTG (1 mM), 10 ml of cells were pelleted by centrifugation at 10,000 gram and resuspended in 10 ml of Phosphate buffer (PBS). The cells were mixed thoroughly, placed on ice, and sonicated with Branson sonicater (2 min, 30% duty cycle). The broken cells were pelleted and the supernantant were used in determining the lipase activity and organic solvent tolerant. Various organic solvents were tested at the concentration of 25% (v/v) by addition of 1 ml of organic solvent to 3 ml of crude enzyme. The reaction mixture was incubated for 30 minutes at 37° C. under shaking condition (200 rpm). Remaining activity was assayed under standard condition and expressed as the percent of the control value. For control, distilled water was added instead of solvent. The organic solvents used were hexane, ρ-xylene, benzene, dimethy sulfoxide, acetonitrile and hexadecane. Each experiment was done in triplicate.
Table 4: Effect of different organic solvents on crude recombinant lipase activity. Three milliliters of cell-free supernatant of the culture was incubated with 1 ml of organic solvents at 37° C. with shaking. The remaining lipase activity relative to the non-solvent containing control was measured.

The test system of series [2] is lipase secreted by Bacillus sphaericus 205y. The experiment in a line: Effect of organic solvents on crude lipase secreted by Bacillus sphaericus 205y. In kind it is biochemical. Conditions: 25% (v/v) solvent. The procedure: Lipase activity is measured with olive oil emulsion as substrate (Kwon and Rhee. 1991). All reactions were performed at 37° C. for 15 minutes at shaking condition of 200 rpm unless otherwise indicated. One unit of lipase activity was defined as 1.0 μmol of fatty acid liberated per min per ml.
Bacillus sphaericus 205y is grown at 37° C. in M3 medium. The culture medium (24 h) is […] (0.25 μm pore size) as crude enzyme. Investigation of various effects of organic solvents at the concentration of 25% (v/v) (1 ml of organic solvent/3 ml of crude enzyme) on the lipase activity was done. The reaction mixture was incubated for 30 minutes at 37° C. under shaking condition (200 rpm).

For series [3] the following is noted: cited from earlier work.

For the molecule `c1ccccc1` [Benzene], the “Growth of isolate 205y” value in the series with isolate 205y (Hydrocarbon 1% (v/v)) is listed as “++”; with isolate 205y (Hydrocarbon 5% (v/v)), “+++”; with isolate 205y (Hydrocarbon 10% (v/v)), “+++”; with isolate 205y (Hydrocarbon 25% (v/v)), “++”; in the series with isolate 205y (Hydrocarbon 50% (v/v)), “++”; with isolate 205y (Hydrocarbon 75% (v/v)), “++”.

For `CC#N` [Acetonitrile], the “Relative activity (%) at concentration of 25%” value (“Relative activity (%)” below) in series [1] worked out at 0%.

With `CCCCCCCCCCCCCCCC` [Hexadecane], the “Effect on recombinant lipase activity (in words)” value in series [1] (25% (v/v) solvent) was “completely inhibited”. Further, the “Relative activity (%)” value in series [1] was 0%.

As usually defined, the Log P is a log measure of how a compound divides between an organic and an aqueous phase. As to `CCCCCC` [n-Hexane], in series [1] (25% (v/v) solvent), the “Effect on recombinant lipase activity (in words)” value was “slightly activated” and the “Lipase activity enhanced (fold of control)” value turned out to be 1.10 folds. Further, in series [1], the “Relative activity (%)” value stood at 110%. In series [2], the “Stability of lipase secreted by Bacillus sphaericus 205y in solvent (in words)” value was “stable”. Also, in series [3], the “Log P” value is 3.6.

In the case of `C[S+](C)[O-]` [Dimethyl sulfoxide], in series [1], the “Relative activity (%)” value was determined as 10%. In series [3], the “Log P” value is −1.22.

In the case of `Cc1ccccc1` [Toluene], the “Growth of isolate 205y” value with isolate 205y (Hydrocarbon 1% (v/v)) is “+++”; with isolate 205y (Hydrocarbon 5% (v/v)) it was “+++”; in the series on isolate 205y (Hydrocarbon 10% (v/v)) it was “++”; with isolate 205y (Hydrocarbon 25% (v/v)), “++”; in the series with isolate 205y (Hydrocarbon 50% (v/v)), “++”; with isolate 205y (Hydrocarbon 75% (v/v)), “++”.

Consider `Cc1ccc(C)cc1` [ρ-Xylene], for which the “Growth of 205y in solvent (in words)” value in the series with isolate 205y is “good growth”. The “Growth of isolate 205y” value with isolate 205y (Hydrocarbon 1% (v/v)) is recorded as “++”; with isolate 205y (Hydrocarbon 5% (v/v)), “+++”; in the series on isolate 205y (Hydrocarbon 10% (v/v)) it was “+++”; with isolate 205y (Hydrocarbon 25% (v/v)), “+++”; in the series with isolate 205y (Hydrocarbon 50% (v/v)), “++”; in the series with isolate 205y (Hydrocarbon 75% (v/v)), “++”. For the same molecule, in series [1], the “Relative activity (%)” value was determined as 90%. The “Stability of lipase secreted by Bacillus sphaericus 205y in solvent (in words)” value in series [2] was “stable”.
